# Laboratory results: patent publication US20170202792A1, “METHOD FOR TREATING TAU-ASSOCIATED DISEASES” (NATIONAL TAIWAN NORMAL UNIVERSITY, priority 2016, published 2017)
# System: GRP78
# Experiment: Western blot of GRP78 expression in tauRD-DsRed SH-SY5Y cells
# Assay type: cell-based, human
# Details: untreated = 100%
# From the text: Furthermore, chaperones are molecules essential for proper protein folding which play a key role in protein-folding disorders in central nervous system. […] Moreover, the upregulation of endoplasmic reticulum chaperones such as glucose-regulated protein, 78 kDa (GRP78) is a cellular protective response against AD (Hoshino et al., 2007. Endoplasmic reticulum chaperones inhibit the production of amyloid-(3 peptides. Biochem. J. 402, 581-589). Accordingly, the GRP78 and HSPB1 expression in tauRD-DsRed SH-SYSY cells treated by Congo red and compound (I) with or without doxycycline were analyzed.
# Western blotting analysis was applied for examining the expressions of HSPB1 and GRP78, the method was as follows: total proteins were extracted using RIPA buffer, which comprised 50 mM Tris-HCl, 150 mM NaCl, 1 mM EDTA, 1 mM EGTA, 0.1% SDS, 0.5% sodium deoxycholate, 1% Triton X-100, and a protease inhibitor cocktail (Calbiochem). […] Next, immunoreactive bands were detected using horseradish peroxidase-conjugated goat anti-mouse, goat anti-rabbit, or donkey anti-goat IgG antibodies (1:5000; GeneTex) and chemiluminescent substrate (Millipore).
compound,measurement,value
"CCCCC/C=C\C/C=C\C/C=C\C/C=C\CCCC(=O)Nc1ccc(O)cc1 [compound (I), (5Z, 8Z, 11Z,14Z)-N-(4-Hydroxyphenyl)icosa-5 ,8 , 11,14-tetraen amide]",expression of GRP78 relative to untreated cells,189%
